Laboratory results: ChEMBL document CHEMBL1143926, “Synthesis of novel analogues of (+)-varitriol via olefin cross-metathesis reaction” (Bioorg Med Chem Lett, 2008)
Activity calls are given as the source filed them. The calls are words filed in the database; no cut-off is given here.

Key:
[1] = tested on: DU-145; assay: Cytotoxicity against human DU145 cells; assay type: functional
[2] = tested on: OVCAR-5; assay: Cytotoxicity against human OVCAR5 cells; assay type: functional
[3] = tested on: HL-60; assay: Cytotoxicity against human HL60 cells; assay type: functional
[4] = tested on: RXF 393; assay: Cytotoxicity against human RXF393 cells; assay type: functional
[5] = tested on: T47D; assay: Cytotoxicity against human T47D cells; assay type: functional
[6] = tested on: COLO 205; assay: Cytotoxicity against human COLO205 cells; assay type: functional
[7] = tested on: SNB-75; assay: Cytotoxicity against human SNB75 cells; assay type: functional
[8] = tested on: SNB-19; assay: Cytotoxicity against human SNB19 cells; assay type: functional
[9] = tested on: CCRF-CEM; assay: Cytotoxicity against human CCRF-CEM cells; assay type: functional
[10] = Cytotoxicity against mouse RAW2647 cells after 24 hrs by MTT assay; assay type: cell-based, RAW264.7; conditions: for Activity: raw264.7, 24 h; for GI50 at 24 h: RAW2647 cells
[11] = tested on: HT-29; assay: Cytotoxicity against human HT29 cells after 24 hrs by MTT assay; assay type: functional
[12] = tested on: A549; assay: Cytotoxicity against human A549 cells after 24 hrs by MTT assay; assay type: functional, cell-based

Row | Compound | GI50 [11] | Activity [12] | GI50 at 24 h [10] [µM] | also measured
1 | COc1cccc(/C=C/C2OC(C)C(O)C2O)c1CO (racemic) [(+/-)-VARITRIOL] | – | – | – | GI50 [1]: 1.1 µM; GI50 [2]: 68.2 µM; GI50 [3]: 25.2 µM; GI50 [4]: 0.163 µM; GI50 [5]: 0.21 µM; GI50 [6]: 95.9 µM; GI50 [7]: 0.244 µM; GI50 [8]: 91.3 µM; GI50 [9]: 26 µM
2 | COc1cc(/C=C/[C@H]2O[C@@H]3OC(C)(C)O[C@@H]3[C@H]2O)cc(OC)c1 | 20 10^-4 M | inactive | – | Activity [10]: Not Active
3 | COc1cccc(/C=C/[C@H]2O[C@@H]3OC(C)(C)O[C@@H]3[C@H]2O)c1 | 17.5 10^-4 M | inactive | 671 | –
4 | COc1cc(/C=C/[C@H]2OC(OC)[C@@H]3OC(C)(C)O[C@H]23)ccc1O (stereo not given in full) | 13.2 10^-4 M | inactive | 835 | –
5 | COc1cc(/C=C/[C@H]2OC(OC)[C@@H]3OC(C)(C)O[C@H]23)cc(OC)c1 (stereo not given in full) | – | inactive | 541 | Activity [11]: inactive
6 | COc1cccc(/C=C/[C@H]2OC(OC)[C@@H]3OC(C)(C)O[C@H]23)c1 (stereo not given in full) | – | inactive | – | Activity [10]: Not Active; Activity [11]: inactive
7 | COc1ccc(/C=C/[C@H]2OC(OC)[C@@H]3OC(C)(C)O[C@H]23)cc1 (stereo not given in full) | 4.7 10^-4 M | inactive | 696 | –
8 | COc1cc(/C=C/[C@H]2OC(OC)[C@@H]3OC(C)(C)O[C@H]23)cc2c1OCO2 (stereo not given in full) | 14 10^-4 M | inactive | 462 | –
